These results are taken from patent publication US20240261302A1, “METHODS OF TREATING NEURODEGENERATIVE DISEASES OR CONDITIONS” (FloraScience Inc., priority 2023, published 2024).

Data set [1] deals with HT22 cells. Description: Ferroptosis Assay (RSL3-induced cell death, MTT). In kind it is cell-based, mouse. As to conditions: for EC50: Mus musculus, HT-22, HT22 cells, 1 hr pretreatment, 50 nM RSL3, 16 hr, MTT, read-out: Observed EC50 RSL3. As for the experimental part: Ferroptosis Assay: HT22 cells were seeded at 3,000 cells/well in 96-well tissue culture plates in DMEM plus 10% FBS and 1% antibiotics. After 24 hr of plating, the cells were pretreated with different concentrations of test compounds or a vehicle control for 1 hr followed by coincubation with 50 nM RSL3 to induce the cell death cascade. After 16 hr of treatment, cell viability was measured by the MTT assay. Optical absorbance was measured at 570 nm on a SpectraMax M5 microplate reader. Samples were analyzed in eight to sixteen wells per independent experiment (n=8-16). Results were presented as the percentage of the controls with vehicle alone.

Data set [2] relates to HT22 cells. Description: Oxytosis/ferroptosis assay with erastin (Table 2). It counts as cell-based. As to conditions: Mus musculus, HT-22; erastin as inducer; method not given; read-out: Observed EC50 erastin.
The nature of data set [3]: Cell viability after RSL3 with/without FCCP (CyQUANT DNA-based assay, fluorescence microscopy), mt-GFP WT cells. Also on record: species or system mouse. The note with it: mouse, HT22 mt-GFP WT cells, FCCP treatment 40 hr, read-out: decrease in cell viability compared to the vehicle control.
Data set [4] is described as follows: Cell viability after RSL3 with/without FCCP (CyQUANT DNA-based assay, fluorescence microscopy), mt-GFP/mCherry-Parkin cells. As to conditions: mouse, HT22 mt-GFP/mCherry-Parkin cells, FCCP treatment 40 hr, read-out: decrease in cell viability compared to the vehicle control. On the set-up: species or system mouse.
Data set [5] has as its system HT22 mt-GFP/mCherry-Parkin cells. Described as above. Also on record: species or system mouse. As to conditions: for protection against RSL3-induced cell death, no FCCP pretreatment: 16 hr; for protection against RSL3 after FCCP pretreatment (mitochondria-depleted cells): FCCP 5 μM 24 hr, then 16 hr.
Another data set relates to HT22 mt-GFP WT cells. Description: Cell viability after RSL3 with/without FCCP (CyQUANT DNA-based assay, fluorescence microscopy), mt-GFP WT cells. Also on record: species or system mouse.
The subject of data set [6] is HT22 cells. Description: Cellular Lipid Peroxidation Measurement (C11-BODIPY). In kind it is cell-based, mouse. As for the experimental part: Lipid Peroxidation MeasurementsHT22 cells were seeded onto 96-well black walled plates at a density of 3,000 cells/well in DMEM supplemented with 10% FBS and 1% antibiotics. After the desired treatments, cells were labeled with 2.5 μM C11-BODIPY 581/591 (oxidized form Ex/Em=488/520 nm) at 37° C. for 2 hr. Experiments were performed according to the manufacturer's instructions. Fluorescence was measured on a SpectraMax M5 microplate reader. Data were normalized for total protein/well. Each condition was analyzed in twelve wells per independent experiment (n=12). Results were presented as the percentage of the controls with vehicle alone. Results were verified by live-cell imaging under a fluorescence microscope.

Data set [7] deals with HT22 cells. Description: Mitochondrial Membrane Potential Assay (JC-10) in HT22 cells. It counts as cell-based, mouse. As to conditions: 50 nM, 4 hr. As for the experimental part: Mitochondrial Membrane Potential Assay. Cells seeded at 5,000 cells/well onto 96-well black walled plates were treated with test compounds at the desired concentrations under the culture condition described above. The mitochondrial uncoupler FCCP at 2 μM was used as a reference control. After the desired treatments for 4 hr, the cells were subjected to a JC-10 mitochondrial membrane potential assay according to the manufacturer's instruction. Fluorescence intensities (Ex/Em=490/525 nm, and Ex/Em=540/590 nm) of each well were monitored on a SpectraMax M5 microplate reader. The ratio of fluorescence intensity (590/525 nm) was used to determine the mitochondrial membrane potential (ΔΨm). Decreasing ratios indicate mitochondrial membrane depolarization. Samples were analyzed in eight to sixteen wells per independent experiment (n=8-16). Results were verified by live-cell imaging under a fluorescence microscope.

The test system of data set [8] is HT22 cells. Description: MitoTracker Assay (mitochondrial mass). In kind it is cell-based, mouse. As to conditions: 50 nM, vs control cells. As for the experimental part:
MitoTracker Assay. HT22 cells were seeded onto 96-well black walled plates at a density of 5,000 cells/well in DMEM supplemented with 10% FBS and 1% antibiotics. After the desired treatments, MitoTracker Orange CM−H2TMRos (Ex/Em=554/576 nm) and Hoechst 33342 (Ex/Em=360/460 nm) dyes were added to the cells and incubated under the same culture condition for 2 hr. Fluorescence was measured on a SpectraMax M5 microplate reader. Experiments were performed according to the manufacturer's instructions. Data were normalized for total protein/well. Each condition was analyzed in sixteen wells per independent experiment (n=16). Results were presented as the percentage of the controls with vehicle alone. Results were verified by live-cell imaging under a fluorescence microscope.

The nature of data set [9]: Cell-free, liposome-based assay of lipid peroxidation (STY-BODIPY). In kind it is biochemical. The note with it: test compounds 10 μM. As for the experimental part: For the cell-free, liposome-based assay, STY-BODIPY (1.5 μM) and liposomes of egg-PC (1 mM) (Avanti Polar Lipids Inc, Cat #840051P, AL) in TBS (pH 7.4) were added to an opaque 96-well plate. This was followed by the addition of test compounds (10 μM). The plate was incubated for 30 min at 37° C. and then vigorously mixed for 5 min. The autoxidation was initiated by the addition of V-70 (0.5 mM) (Fujifilm Wako, Cat #001-70078, Japan), followed by additional mixing for 5 min. Data were acquired at Ex/Em=488/518 nm every 15 min at 37° C. on a SpectraMax M5 microplate reader. Data were transformed into [ox-STY-BODIPY] by taking the raw fluorescent values of the saturated curve of control DMSO and dividing them by the initial concentration of reduced STY-BODIPY ([…]). Samples were analyzed in quadruplicate in four independent experiments (n=4).

The test system of data set [10] is HT22 cells. Description: Oxytosis Assay (glutamate-induced cell death, MTT). In kind it is cell-based, mouse. The note with it: 5 mM, 16 hr, vs control group. As for the experimental part: Oxytosis Assay. HT22 cells were seeded at 3,000 cells/well in 96-well tissue culture plates in DMEM plus 10% FBS and 1% antibiotics. After 24 hr of plating, the cells were pretreated with different concentrations of the test compounds or a vehicle control for 1 hr followed by coincubation with 5 mM glutamate to initiate the cell death cascade. After 16 hr of treatment, cell viability was measured by the 3−(4,5-dimethylthiazol-2-yl)-2,5-diphenyltetrazolium bromide (MTT) assay. Optical absorbance was measured at 570 nm on a SpectraMax M5 microplate reader. Samples were analyzed in eight to sixteen wells per independent experiment (n=8-16). Results were presented as the percentage of the controls with vehicle alone.

Each structure is given as a SMILES string.

On to `CCCCCc1cc(O)c2c(c1)OC(C)(C)C1CCC(C)C=C21` (stereo not drawn) [D10-THC, 6,6,9-trimethyl-3-pentyl-6a,7,8,9-tetrahydro-6H-benzo[c]chromen-1-ol], for which the EC50 (in general, the concentration at which the effect is half-maximal) with HT22 cells [1] was determined as 0.13 µM; with HT22 cells [2], 0.62 µM.

As for `N#CC(C#N)=NNc1ccc(OC(F)(F)F)cc1` [FCCP, carbonyl cyanide-4-(trifluoromethoxy)phenylhydrazone, reference compound], the cytotoxicity at 40 hr, 5 μM in data set [3] and in data set [4] was around 40% each time.

`CCCCCc1cc(O)c([C@H]2C=C(C)CC[C@@H]2C(C)C)c(O)c1` [H2CBD, 2-[(1R,6R)-6-Isopropyl-3-methylcyclohex-2-en-1-yl]-5-pentylbenzene-1,3-diol]: the EC50 in the data set on HT22 cells [1] is 1.1 µM; with HT22 cells [2], 4.8 µM.

Regarding `CCCCCc1cc(O)c2c(c1)O[C@H]1[C@@H]2[C@H](C(C)C)CC[C@]1(C)O` [H2CBE, (5aS,6S,9S,9aR)-9-isopropyl-6-methyl-3-pentyl-5a,6,7,8,9,9a-hexahydrodi-benzo[b,d]furan-1,6-diol], the EC50 turned out to be 3.5 µM in the data set on HT22 cells [1] and 9.2 µM in the data set with HT22 cells [2].

In the case of `CCCCCc1cc(O)c(-c2cc(C)ccc2C(C)C)c(O)c1` [H2CBND, 2,6-dihydroxy-4-pentyl-2′-isopropyl-5′-methyl-1,1′-biphenyl], the EC50 was found to be 2.4 µM with HT22 cells [1] and 5.7 µM in the data set on HT22 cells [2].

Consider `CCCCCc1cc(O)c([C@H]2CC(C)CC[C@@H]2C(C)C)c(O)c1` (stereo partly drawn) [H4CBD, 2-[(1S,6R)-6-Isopropyl-3-methylcyclohexyl]-5-pentylbenzene-1,3-diol], for which the EC50 came out at 0.4 µM with HT22 cells [1] and 0.3 µM in the data set on HT22 cells [2].

Consider `CCCCCc1cc(O)c(CCC(C)CCCC(C)C)c(O)c1` (stereo not drawn) [H4CBG, 2-(3,7-dimethyloctyl)-5-pentylbenzene-1,3-diol], for which the EC50 in the data set with HT22 cells [1] came to 0.4 µM; in the data set with HT22 cells [2] it was 0.7 µM.

Take `CCCCCc1cc(O)c2c(c1)OC(C)(C)C1CCC(C)CC21` (stereo not drawn) [HHC, 6,6,9-trimethyl-3-pentyl-6a,7,8,9,10,10a-hexahydro-6H-benzo[c]chromen-1-ol]: the EC50 in the data set on HT22 cells [1] is 0.3 µM; in the data set on HT22 cells [2] it was 0.5 µM.

As for `COC1=C(OC)C(=O)C(CCCCCCCCCC[P+](c2ccccc2)(c2ccccc2)c2ccccc2)=C(C)C1=O` [MitoQ], in data set [5], the “protection against RSL3-induced cell death, no FCCP pretreatment” value is recorded as “effectively protected” and the “protection against RSL3 after FCCP pretreatment (mitochondria-depleted cells)” value was “showed no cytoprotection”.

Turning to `COC(=O)c1ccc([C@@H]2c3[nH]c4ccccc4c3C[C@@H](C(=O)OC)N2C(=O)CCl)cc1` [RSL3, reference compound], the “cell viability in FCCP pretreated cells” value (in the data set with HT22 mt-GFP WT cells; in data set [5]) was 10-15% throughout. Moreover, the “increase of cellular lipid peroxidation level” value with HT22 cells [6] (50 nM, 16 hr) was “approximately 30%”. The “cell death by inducer alone” value with HT22 cells [1] (50 nM, 16 hr, vs control group) was 40-60%. Also, in the data set with HT22 cells [7], the “effect on ΔΨm” value was “no impact”. Besides, in the data set on HT22 cells [8], the “decrease of MitoTracker intensity” value worked out at 8.4%.

Take `CCCCCc1cc2c(c(O)c1C(=O)O)[C@@H]1C=C(C)CC[C@H]1C(C)(C)O2` [THCA, (6aR,10aR)-1-Hydroxy-6,6,9-trimethyl-3-pentyl-6a,7,8,10a-tetrahydro-6H-benzo[c]chromene-2-carboxylic acid]: the EC50 in the data set with HT22 cells [1] and in the data set with HT22 cells [2] was above 10 µM each time.

With `CCCc1cc(O)c2c(c1)OC(C)(C)C1CCC(C)=CC21` (stereo not drawn) [THCV, 6,6,9-Trimethyl-3-propyl-6a,7,8,10a-tetrahydro-6H-benzo[c]chromen-1-ol], the half-maximal effective concentration (EC50) in the data set with HT22 cells [1] stood at 0.78 µM; in the data set with HT22 cells [2], 3.4 µM.

Consider `CCOC(=O)c1ccc(NC2CCCCC2)c(N)c1` [ferrostatin], for which, in the data set on HT22 cells [6] (50 nM RSL3, 16 hr, p<0.0001), the “RSL3-induced cellular lipid peroxidation” value was “effectively suppressed”. The “basal cellular lipid peroxidation, compound alone” value in the data set with HT22 cells [6] (CBN 5 μM, ferrostatin 10 μM, 16 hr) is given as “neither CBN (5 μM) nor ferrostatin (10 μM) alone changed basal levels of lipid peroxidation”. The “inhibition of lipid peroxidation, cell-free” value in data set [9] was “showed a potent effect against lipid peroxidation”. In addition, in data set [5], the “protection against RSL3-induced cell death, no FCCP pretreatment” value is “effectively protected” and the “protection against RSL3 after FCCP pretreatment (mitochondria-depleted cells)” value was “rescued”.

As to `N[C@@H](CCC(=O)O)C(=O)O` [glutamate, reference compound], the “cell death by inducer alone” value with HT22 cells [10] is given as 40-60%.

`CCCCCc1cc(O)c2c(c1)O[C@]1(C)CC[C@@H](C(C)C)[C@H]2C1` [iso-HHC, (2α,5α,6α)-(−)-3,4,5,6-tetrahydro-2-methyl-5-(1-methylethyl)-9-pentyl-2,6-methano-2H-1-benzoxocin-7-ol]: the EC50 in the data set on HT22 cells [1] is 0.8 µM; with HT22 cells [2], 2.4 µM.
